Data: PubChem BioAssay (NCI)
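Step 1: Grow cells in 96-well plates. Step 2: Expose to compound for 48 hours at 5 concentrations. Step 3: Interpolate endpoints linearly; if unreached, use highest concentration. At the TGI there is no net growth.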

Tests used:
Experiment in all cases: NCI-60 cell line screen, 48 h
[1] = system: OVCAR-8 ovarian
[2] = system: SN12C renal
[3] = system: SNB-19 CNS
[4] = system: NCI-H23 lung
[5] = system: OVCAR-4 ovarian
[6] = system: OVCAR-5 ovarian
[7] = system: ACHN renal
[8] = system: DMS 273 small cell lung
[9] = system: RXF 393 renal
[10] = system: A498 renal
[11] = system: SF-268 CNS
[12] = system: SNB-75 CNS
[13] = system: LXFL 529 NSCLC
[14] = system: RPMI-8226 leukemia
[15] = system: TK-10 renal
[16] = system: HCC-2998 colon
[17] = system: MOLT-4 leukemia
[18] = system: CCRF-CEM leukemia
[19] = system: SNB-78 CNS
[20] = system: DMS 114 small cell lung
[21] = system: M14 melanoma
[22] = system: NCI-H226 lung
[23] = system: NCI-H522 lung
[24] = system: LOX IMVI melanoma
[25] = system: HCT-116 colon
[26] = system: SW-620 colon
[27] = system: MALME-3M melanoma
[28] = system: HOP-62 NSCLC
[29] = system: CAKI-1 renal
[30] = system: K-562 leukemia
[31] = system: HOP-92 NSCLC
[32] = system: NCI-H460 lung
[33] = system: U251 CNS
[34] = system: HT29 colon
[35] = system: SK-OV-3 ovarian
[36] = system: A549 NSCLC
[37] = system: OVCAR-3 ovarian
[38] = system: KM12 colon
[39] = system: SF-539 CNS
[40] = system: UACC-257 melanoma
[41] = system: SF-295 CNS
[42] = system: UO-31 renal
[43] = system: IGROV1 ovarian
[44] = system: EKVX NSCLC
[45] = system: COLO 205 colon
[46] = system: SK-MEL-5 melanoma
[47] = system: SK-MEL-28 melanoma
[48] = system: SK-MEL-2 melanoma
[49] = system: HOP-18 NSCLC
[50] = system: XF 498 CNS
[51] = system: M19-MEL melanoma
[52] = system: DLD-1 colon
[53] = system: UACC-62 melanoma
[54] = system: 786-0 renal
[55] = system: SR leukemia
[56] = system: HCT-15 colon
[57] = system: KM20L2 colon
[58] = system: HL-60(TB) leukemia
[59] = system: RXF-631 renal

Nn1c(CCCl)nc2c(Br)cc(Br)cc2c1=O
TGI [1]: > 100 µM
TGI [2]: > 84.2 µM
TGI [3]: > 100 µM
TGI [4]: 62.8 µM
TGI [5]: 69.3 µM
TGI [6]: > 71.5 µM
TGI [7]: > 74.7 µM
TGI [8]: > 100 µM
TGI [9]: > 100 µM
TGI [10]: > 56.9 µM
TGI [11]: > 100 µM
TGI [12]: 91.5 µM
TGI [13]: 69.3 µM
TGI [14]: 58.5 µM
TGI [15]: > 100 µM
TGI [16]: > 100 µM
TGI [17]: 61.3 µM
TGI [18]: 20.3 µM
TGI [19]: > 100 µM
TGI [20]: 50.5 µM
TGI [21]: > 70 µM
TGI [22]: > 75.1 µM
TGI [23]: 38.5 µM
TGI [24]: 78.6 µM
TGI [25]: 53 µM
TGI [26]: > 55 µM
TGI [27]: > 100 µM
TGI [28]: 71.8 µM
TGI [29]: > 93.2 µM
TGI [30]: > 30.6 µM
TGI [31]: > 90.8 µM
TGI [32]: 65.1 µM
TGI [33]: > 58 µM
TGI [34]: > 100 µM
TGI [35]: > 94.1 µM
TGI [36]: > 100 µM
TGI [37]: 39.8 µM
TGI [38]: 38.1 µM
TGI [39]: > 91.4 µM
TGI [40]: > 100 µM
TGI [41]: > 100 µM
TGI [42]: > 75.6 µM
TGI [43]: 60.3 µM
TGI [44]: > 93.7 µM
TGI [45]: 54.1 µM
TGI [46]: 37.8 µM
TGI [47]: > 100 µM
TGI [48]: > 90.9 µM
TGI [49]: > 100 µM
TGI [50]: 56.1 µM
TGI [51]: > 82 µM
TGI [52]: > 79.4 µM
TGI [53]: > 83.8 µM
TGI [54]: 81 µM
TGI [55]: 72 µM
TGI [56]: 55.1 µM
TGI [57]: 65.4 µM
TGI [58]: 6.5 µM

CC1=CC(=O)C(C)(C2=NC(C)(C)CO2)c2ccccc21 (stereo not given)
TGI [1]: > 100 µM
TGI [2]: > 100 µM
TGI [3]: > 100 µM
TGI [4]: > 100 µM
TGI [5]: > 100 µM
TGI [7]: > 100 µM
TGI [9]: > 100 µM
TGI [11]: > 100 µM
TGI [12]: > 100 µM
TGI [13]: > 100 µM
TGI [14]: > 100 µM
TGI [15]: > 100 µM
TGI [17]: > 100 µM
TGI [18]: > 100 µM
TGI [20]: > 100 µM
TGI [21]: > 100 µM
TGI [22]: > 100 µM
TGI [23]: > 100 µM
TGI [25]: > 100 µM
TGI [26]: > 100 µM
TGI [27]: > 100 µM
TGI [28]: > 100 µM
TGI [29]: > 100 µM
TGI [30]: > 100 µM
TGI [31]: > 100 µM
TGI [32]: > 100 µM
TGI [33]: > 100 µM
TGI [34]: > 100 µM
TGI [35]: > 100 µM
TGI [59]: > 100 µM
TGI [36]: > 100 µM
TGI [37]: > 100 µM
TGI [38]: > 100 µM
TGI [39]: > 100 µM
TGI [40]: > 100 µM
TGI [41]: > 100 µM
TGI [42]: > 100 µM
TGI [43]: > 100 µM
TGI [44]: > 100 µM
TGI [45]: > 100 µM
TGI [46]: > 100 µM
TGI [47]: > 100 µM
TGI [48]: > 100 µM
TGI [49]: > 100 µM
TGI [51]: > 100 µM
TGI [52]: > 100 µM
TGI [53]: > 100 µM
TGI [54]: > 100 µM
TGI [55]: > 100 µM
TGI [56]: > 100 µM
TGI [57]: > 100 µM
TGI [58]: > 100 µM
